Data published in PubChem BioAssay (NCI).
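Briefly, cells in 96-well plates were exposed to five compound concentrations for 48 h, and endpoints were estimated by linear interpolation. TGI denotes the concentration required for complete inhibition of growth.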

Assays:
Test in all cases: DTP human tumour cell line panel, 48 h
786-0 renal = test system: 786-0 renal
A498 renal = test system: A498 renal
A549 NSCLC = test system: A549 NSCLC
ACHN renal = test system: ACHN renal
CAKI-1 renal = test system: CAKI-1 renal
COLO 205 colon = test system: COLO 205 colon
DU-145 prostate = test system: DU-145 prostate
HCC-2998 colon = test system: HCC-2998 colon
HCT-116 colon = test system: HCT-116 colon
HCT-15 colon = test system: HCT-15 colon
HOP-62 NSCLC = test system: HOP-62 NSCLC
HT29 colon = test system: HT29 colon
K-562 leukemia = test system: K-562 leukemia
KM12 colon = test system: KM12 colon
M14 melanoma = test system: M14 melanoma
MALME-3M melanoma = test system: MALME-3M melanoma
MCF7 breast = test system: MCF7 breast
MDA-MB-231 breast = test system: MDA-MB-231 breast
MDA-MB-435 = test system: MDA-MB-435
MDA-N = test system: MDA-N
MOLT-4 leukemia = test system: MOLT-4 leukemia
NCI-H23 lung = test system: NCI-H23 lung
NCI-H460 lung = test system: NCI-H460 lung
NCI-H522 lung = test system: NCI-H522 lung
NCI/ADR-RES ovarian = test system: NCI/ADR-RES ovarian
OVCAR-3 ovarian = test system: OVCAR-3 ovarian
OVCAR-4 ovarian = test system: OVCAR-4 ovarian
OVCAR-5 ovarian = test system: OVCAR-5 ovarian
OVCAR-8 ovarian = test system: OVCAR-8 ovarian
PC-3 prostate = test system: PC-3 prostate
RPMI-8226 leukemia = test system: RPMI-8226 leukemia
RXF 393 renal = test system: RXF 393 renal
SF-268 CNS = test system: SF-268 CNS
SF-295 CNS = test system: SF-295 CNS
SF-539 CNS = test system: SF-539 CNS
SK-MEL-2 melanoma = test system: SK-MEL-2 melanoma
SK-MEL-28 melanoma = test system: SK-MEL-28 melanoma
SK-MEL-5 melanoma = test system: SK-MEL-5 melanoma
SK-OV-3 ovarian = test system: SK-OV-3 ovarian
SN12C renal = test system: SN12C renal
SNB-19 CNS = test system: SNB-19 CNS
SR leukemia = test system: SR leukemia
SW-620 colon = test system: SW-620 colon
T-47D breast = test system: T-47D breast
TK-10 renal = test system: TK-10 renal
U251 CNS = test system: U251 CNS
UACC-62 melanoma = test system: UACC-62 melanoma
UO-31 renal = test system: UO-31 renal
BT-549 breast = test system: BT-549 breast
CCRF-CEM leukemia = test system: CCRF-CEM leukemia
EKVX NSCLC = test system: EKVX NSCLC
HL-60(TB) leukemia = test system: HL-60(TB) leukemia
HOP-92 NSCLC = test system: HOP-92 NSCLC
IGROV1 ovarian = test system: IGROV1 ovarian
LOX IMVI melanoma = test system: LOX IMVI melanoma
SNB-75 CNS = test system: SNB-75 CNS
UACC-257 melanoma = test system: UACC-257 melanoma
HS 578T breast = test system: HS 578T breast
NCI-H226 lung = test system: NCI-H226 lung

Measured: TGI

CNC(=O)CCNC(=O)CCC(=O)N(C)C
not listed: BT-549 breast | CCRF-CEM leukemia | EKVX NSCLC | HL-60(TB) leukemia | HOP-92 NSCLC | IGROV1 ovarian | LOX IMVI melanoma | SNB-75 CNS | UACC-257 melanoma | HS 578T breast | NCI-H226 lung
> 100 µM: all other assays above

O=C1CSC(/C=C/c2ccccc2)N1c1ccc(-c2ccc(-n3c(-c4ccccc4)nc4ccccc4c3=O)cc2)cc1 (configuration not stated)
27.7 µM: SK-MEL-5 melanoma
8.52 µM: SNB-75 CNS
75.6 µM: IGROV1 ovarian
36.6 µM: COLO 205 colon
55.7 µM: SF-295 CNS
67.9 µM: MDA-N
29.6 µM: 786-0 renal
66.8 µM: HCT-15 colon
65.3 µM: PC-3 prostate
49.3 µM: MDA-MB-435
39.2 µM: BT-549 breast
50.6 µM: UO-31 renal
64.5 µM: CCRF-CEM leukemia
68 µM: A549 NSCLC
64.4 µM: MALME-3M melanoma
92.7 µM: OVCAR-8 ovarian
53.3 µM: SK-MEL-28 melanoma
41.6 µM: OVCAR-5 ovarian
65.1 µM: SW-620 colon
35.4 µM: M14 melanoma
99.2 µM: HOP-62 NSCLC
32.7 µM: LOX IMVI melanoma
42.9 µM: NCI-H522 lung
62.3 µM: SNB-19 CNS
84.6 µM: OVCAR-3 ovarian
95.9 µM: MCF7 breast
63 µM: OVCAR-4 ovarian
34 µM: HT29 colon
94.9 µM: ACHN renal
88.7 µM: CAKI-1 renal
93.1 µM: UACC-257 melanoma
88.5 µM: U251 CNS
73.1 µM: EKVX NSCLC
56.2 µM: HOP-92 NSCLC
35.8 µM: KM12 colon
38.6 µM: SK-MEL-2 melanoma
not listed: HCT-116 colon | RXF 393 renal | SF-539 CNS | HS 578T breast | NCI-H226 lung
> 100 µM: all other assays above

Cc1cccc2[nH]c3cc(O)cc(O)c3c(=O)c12
not listed: A498 renal | HCC-2998 colon | MCF7 breast | SR leukemia | EKVX NSCLC | HL-60(TB) leukemia
> 10 µM: all other assays above

C=C(C)[C@@H]1C[C@H]2O[C@](O)(C(=C)CC(=O)/C=C(/C)C[C@@H]3OC(=O)[C@]24O[C@@H]34)[C@H]1O
not listed: OVCAR-3 ovarian | HL-60(TB) leukemia | HOP-92 NSCLC | HS 578T breast
> 100 µM: all other assays above

CC(C)(C)[Si](C)(C)OCC1CCC(n2cnc3c(=O)[nH]cnc32)O1 (configuration not stated)
99.8 µM: SNB-75 CNS
not listed: A498 renal | BT-549 breast
> 100 µM: all other assays above

Cc1nc(Cl)c2sc(=S)n(-c3ccc(F)cc3)c2n1
3.17 µM: UO-31 renal
22.8 µM: SF-295 CNS
18.4 µM: SN12C renal
10.3 µM: SK-MEL-5 melanoma
8.38 µM: M14 melanoma
6.24 µM: HS 578T breast
24 µM: UACC-62 melanoma
5.51 µM: HT29 colon
3.11 µM: CAKI-1 renal
7.02 µM: OVCAR-3 ovarian
3.82 µM: DU-145 prostate
5.29 µM: SF-268 CNS
3.95 µM: MDA-N
5.06 µM: SNB-19 CNS
17.7 µM: U251 CNS
33.1 µM: HOP-92 NSCLC
10.9 µM: NCI-H522 lung
26.8 µM: ACHN renal
13.2 µM: MCF7 breast
12.8 µM: TK-10 renal
14.1 µM: SW-620 colon
25.5 µM: NCI/ADR-RES ovarian
43.2 µM: HL-60(TB) leukemia
> 100 µM: CCRF-CEM leukemia | K-562 leukemia | RPMI-8226 leukemia
21.1 µM: RXF 393 renal
9.73 µM: HOP-62 NSCLC
34.6 µM: NCI-H226 lung
2.52 µM: NCI-H23 lung
20.7 µM: MDA-MB-231 breast
4.15 µM: HCT-116 colon
25.3 µM: KM12 colon
12.1 µM: BT-549 breast
3.61 µM: LOX IMVI melanoma
16.6 µM: COLO 205 colon
10.5 µM: UACC-257 melanoma
15.1 µM: HCT-15 colon
3.53 µM: IGROV1 ovarian
33.8 µM: OVCAR-8 ovarian
10.6 µM: SK-MEL-28 melanoma
20.3 µM: HCC-2998 colon
36.8 µM: PC-3 prostate
26.5 µM: NCI-H460 lung
24.1 µM: OVCAR-5 ovarian
25.9 µM: SK-OV-3 ovarian
2.99 µM: SR leukemia
23.9 µM: MALME-3M melanoma
32.9 µM: EKVX NSCLC
7.23 µM: A498 renal
11.9 µM: 786-0 renal
25.4 µM: A549 NSCLC | SK-MEL-2 melanoma
31.4 µM: OVCAR-4 ovarian
18.1 µM: SNB-75 CNS
8.68 µM: MDA-MB-435

C[C@]12CCC3c4ccc(O)cc4CC[C@H]3C1CC(=O)N(N)C2=O (some centres not stated)
not listed: HCT-15 colon | NCI/ADR-RES ovarian | RPMI-8226 leukemia | SK-MEL-2 melanoma | LOX IMVI melanoma
> 100 µM: all other assays above
